Consider 13 molecules from US9334267B2, “RAF inhibitor compounds” (Deciphera Pharmaceuticals, LLC, priority 2012, dated 2016).

In one assay the test system is HT-29 cells. In words: HT-29 cell proliferation assay (resazurin). Type of assay: cell-based. The conditions noted are these: Homo sapiens, V600E mutation, read-out: Cell Proliferation Inhibition IC50, nM HT-29. The protocol: HT-29 cells (catalog #HTB-38) are obtained from the American Type Culture Collection (ATCC, Manassas, Va.). Briefly, cells are grown in McCoy's 5A supplemented with 10% characterized fetal bovine serum (Invitrogen, Carlsbad, Calif.), and 1% Penicillin/Streptomycin/L-Glutamine at 37 degrees Celsius, 5% CO2, and 95% humidity. Cells are allowed to expand until reaching 75-90% confluency at which point they are subcultured or harvested for assay use. A serial dilution of test compound is dispensed into a 384-well black clear bottom plate in triplicate. One thousand two-hundred fifty cells are added per well in 50 μL complete growth medium in the 384-well plate. Plates are incubated for 67 hours at 37 degrees Celsius, 5% CO2, and 95% humidity. At the end of the incubation period, 10 μL of a 440 μM solution of resazurin (Sigma, St. Louis, Mo.) in PBS is added to each well of the plate and plates are incubated for an additional 5 hours at 37 degrees Celsius, 5% CO2, and 95% humidity. Plates are read on a Synergy2 reader (Biotek, Winooski, Vt.) using an excitation of 540 nm and an emission of 600 nm. Data is analyzed using Prism software (Graphpad, San Diego, Calif.) to calculate IC50 values.
The A375, HT-29, and Colo-205 cells (ATCC) harbor a V600E mutation.

The target in a further assay is T1, human wild type c-KIT (Homo sapiens, UniProt P10721).
T1 construct: GST (N); made in house
T1 sequence (P10721 26-976): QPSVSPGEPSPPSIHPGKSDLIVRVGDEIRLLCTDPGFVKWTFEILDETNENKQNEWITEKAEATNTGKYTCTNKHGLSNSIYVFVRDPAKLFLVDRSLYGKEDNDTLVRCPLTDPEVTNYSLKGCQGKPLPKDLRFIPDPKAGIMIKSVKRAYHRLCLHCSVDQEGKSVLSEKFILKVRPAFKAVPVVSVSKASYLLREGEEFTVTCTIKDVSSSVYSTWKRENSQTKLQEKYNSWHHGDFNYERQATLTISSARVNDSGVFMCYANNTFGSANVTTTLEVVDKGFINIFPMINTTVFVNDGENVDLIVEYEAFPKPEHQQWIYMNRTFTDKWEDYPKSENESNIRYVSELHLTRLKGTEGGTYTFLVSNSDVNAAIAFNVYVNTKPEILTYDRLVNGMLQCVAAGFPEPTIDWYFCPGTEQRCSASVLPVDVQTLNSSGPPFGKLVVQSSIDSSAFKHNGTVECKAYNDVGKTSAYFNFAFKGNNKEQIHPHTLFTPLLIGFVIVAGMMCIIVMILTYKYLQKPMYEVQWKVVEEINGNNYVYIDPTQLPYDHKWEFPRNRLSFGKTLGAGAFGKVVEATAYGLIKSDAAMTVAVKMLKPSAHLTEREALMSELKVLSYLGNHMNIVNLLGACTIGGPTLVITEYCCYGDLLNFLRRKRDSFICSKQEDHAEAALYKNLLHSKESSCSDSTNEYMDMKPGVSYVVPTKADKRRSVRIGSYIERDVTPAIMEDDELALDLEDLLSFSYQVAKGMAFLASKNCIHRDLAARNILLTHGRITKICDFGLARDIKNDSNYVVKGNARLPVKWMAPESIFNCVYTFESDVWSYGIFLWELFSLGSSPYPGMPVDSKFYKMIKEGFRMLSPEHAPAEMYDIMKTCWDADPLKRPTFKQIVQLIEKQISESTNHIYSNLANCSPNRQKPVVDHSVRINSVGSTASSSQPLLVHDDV
The experiment in a line: Enzymatic assay of c-Kit kinase activity (poly E4Y phosphorylation, coupled PK/LDH). Type of assay: biochemical. The text has this: c-Kit is an important oncogene, and its overexpression and genetic mutations often occur in melanoma and gastrointestinal stromal tumor (GIST) patients. In the c-Kit enzymatic assay, the phosphorylation of poly E4Y by ATP catalyzed by human c-Kit is monitored spectrophotometrically. The ADP produced from the kinase reaction is coupled to pyruvate kinase/lactate dehydrogenase (PK/LDH) reactions where NAD is formed from pyruvate and NADH. NADH can be detected by absorbance at 340 nm, as described above for enzymatic assays of kinase activities of B-Raf, C-Raf and B-Raf mutations.
The assay reaction mixture includes 6 nM human wild type c-KIT, 1 mg/mL Poly (Glu,Tyr) (Sigma), 1 mM Phosphoenol-pyruvate, 280 μM NADH, 5 U/3.5 U (per 100 ul) Pyruvate Kinase/Lactate Dehydrogenase, 85 mM Tris, pH 7.5, 17 mM MgCl2, 0.0042% Triton® X-100, 0.005% BSA, 1% DMSO. Test compound is incubated with the reaction mixture for 0.5 hour before adding 200 μM ATP to start the reaction at 30° C.

Another assay addresses T2, human B-Raf V600E (Homo sapiens, UniProt P15056, V600E).
T2 construct: B-RafV600E (residues 433-726 containing V600E mutation) containing an N-terminal purification tag is expressed and purified; made in house
The experiment in a line: Enzymatic assay of B-Raf V600E kinase activity (Raf/MEK1 ATPase, coupled PK/LDH, A340). It counts as biochemical. Conditions: read-out: Enzyme IC50, nM B-Raf V600E. The protocol:
Test compounds are evaluated for their inhibitory activities against one or more of human wild type B-Raf, human wild type C-Raf, human B-Raf V600E, human B-Raf V600E+T529I or human B-Raf V600E+G468A. T529I is a threonine to isoleucine B-Raf gatekeeper mutation and G468A is a B-Raf secondary mutation at G1403C in exon 11. The enzymatic assays of B-Raf, C-Raf and B-Raf mutations evaluate a property of Raf and MEK1 complex, which in the presence of ATP, catalyzes an enhanced ATP hydrolysis (Rominger, et al, Arch. Biochem. Biophys. 2007, 464: 130-137; US Patent Publication No. 2006/0211073). The ADP formed is monitored by the well-known coupled PK/LDH (pyruvate kinase/lactate dehydrogenase) system in the form of NADH oxidation, which can be monitored and detected spectrophotometrically by absorbance at 340 nm (A340; for principal of the method see Schindler et al, Science, 2000, 289: 1938-1942). Raf activated MEK1 ATPase activity is a property shared by all forms of Raf proteins.
B-RafV600E (residues 433-726 containing V600E mutation) containing an N-terminal purification tag is expressed and purified essentially as described previously (Wan et al, Cell, 2004, 116, 855-867).
Test compounds are evaluated for their inhibitory activities against one or more of wild type B-Raf, wild type C-Raf, B-Raf V600E, B-Raf V600E+T529I and B-Raf V600E+G468A. T529I is a B-Raf gatekeeper mutation and G468A is a B-Raf secondary mutation. The enzymatic assays of B-Raf, C-Raf and B-Raf mutations evaluate a property of Raf and MEK1 complex, which in the presence of ATP, catalyzes an enhanced ATP hydrolysis (Rominger, et al, Arch. Biochem. Biophys. 2007, 464: 130-137). The ADP formed is monitored by the well-known coupled PK/LDH (pyruvate kinase/lactate dehydrogenase) system in the form of NADH oxidation, which can be monitored and detected by absorbance at 340 nm (A340; for principal of the method see Schindler et al, Science, 2000, 289: 1938-1942). Raf activated MEK1 ATPase activity is a property shared by all forms of Raf proteins. In the B-Raf wild type enzymatic assay, the reaction mixture contains 1.2 nM B-Raf, 30 nM MEK1, 1000 uM ATP, 3.5 units (per 100 ul) of PK, 5 units (per 100 ul) of LDH, 1 mM phosphoenol pyruvate (PEP), and 280 uM of NADH. In the C-Raf assay, the reaction mixture contains 0.6 nM C-Raf, 26 nM MEK1, 2000 uM ATP, and the same amount of PK, LDH, PEP and NADH as above. In the B-Raf V600E assay, the reaction mixture contains […] B-Raf V600E, 26 nM MEK1, 200 uM ATP and the same amount of PK, LDH, PEP and NADH as above. In the B-RafV600E+T529I assay, the reaction mixture contains 6.2 nM B-Raf V600E+T529I, 30 nM MEK1, 200 uM ATP and the same amount of PK, LDH, PEP and NADH as above. In the B-Raf V600E+G468A assay, the reaction mixture contains 3.5 nM B-Raf, 30 nM MEK1, 200 uM ATP and the same amount of PK, LDH, PEP and NADH as above. All assays are started by mixing the above mixture with test compound and monitoring at A340 continuously for approximately 5 hr. […] In the aforementioned assays, the enzyme constructs can be screened prior to or after cleavage of the N-terminal purification tag.

A further assay relates to HCT-116 cells. The experiment in a line: HCT-116 cell proliferation assay (resazurin). Type of assay: cell-based. The conditions noted are these: Homo sapiens, K-Ras mutation B-Raf wild type, read-out: Cell Proliferation Inhibition IC50, nM HCT-116. For orientation: Resazurin is reduced to fluorescent resorufin, in cell work by metabolically active cells.

T2 sequence (P15056 433-726 V600E): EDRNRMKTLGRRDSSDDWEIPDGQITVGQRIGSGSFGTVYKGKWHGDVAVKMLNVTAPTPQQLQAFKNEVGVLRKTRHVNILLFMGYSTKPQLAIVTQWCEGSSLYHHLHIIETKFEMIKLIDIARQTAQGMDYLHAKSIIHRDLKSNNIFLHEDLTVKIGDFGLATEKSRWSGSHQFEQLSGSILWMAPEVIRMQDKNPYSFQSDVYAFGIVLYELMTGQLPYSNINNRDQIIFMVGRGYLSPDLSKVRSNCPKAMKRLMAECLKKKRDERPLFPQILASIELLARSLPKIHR

Turning to `Cc1cc(F)c(NC(=O)NCCC2(C)CC2)cc1-c1cc2cnc(N)nc2nc1C` [Example 23, 1-(5-(2-Amino-7-methylpyrido[2,3-d]pyrimidin-6-yl)-2-fluoro-4-methylphenyl)-3-(2-(1-methylcyclopropyl)ethyl)urea], the IC50 with HT-29 cells was under 100 nM; at human wild type c-KIT, under 150 nM; on human B-Raf V600E it was under 150 nM; in the assay on HCT-116 cells it was 100 to 1000 nM.
Regarding `CNc1ncc2cc(-c3cc(NC(=O)NCCC(C)(C)F)c(F)cc3C)cnc2n1` [Example 34, 1-(3-Fluoro-3-methyl-butyl)-3-[2-fluoro-4-methyl-5-(2-methylaminopyrido[2,3-d]pyrimidin-6-yl)phenyl]urea], the IC50 with HT-29 cells is under 100 nM; against human wild type c-KIT it was under 150 nM; on human B-Raf V600E, under 150 nM; with HCT-116 cells, 100 to 1000 nM.
For `CNc1ncc2cc(-c3cc(NC(=O)NCCC(C)(C)C(F)(F)F)c(F)cc3C)c(C)nc2n1` [Example 27, 1-(2-Fluoro-4-methyl-5-(7-methyl-2-(methylamino)pyrido[2,3-d]pyrimidin-6-yl)phenyl)-3-(4,4,4-trifluoro-3,3-dimethylbutyl)urea], the IC50 with HT-29 cells is under 100 nM; against human wild type c-KIT, under 150 nM; at human B-Raf V600E, under 150 nM; in the assay with HCT-116 cells it was 100 to 1000 nM.
On to `CNc1ncc2cc(-c3cc(NC(=O)NCC4CC4(C)C)c(F)cc3C)cnc2n1` (stereo not shown) [Example 9], for which the IC50 is 100 to 1000 nM in the assay with HT-29 cells, under 150 nM on human wild type c-KIT, under 150 nM on human B-Raf V600E and 1000 to 10000 nM with HCT-116 cells.
With `CNc1ncc2cc(-c3cc(NC(=O)NCCC4(C(F)(F)F)CC4)c(F)cc3C)c(C)nc2n1` [Example 30, 1-(2-Fluoro-4-methyl-5-(7-methyl-2-(methylamino)pyrido[2,3-d]pyrimidin-6-yl)phenyl)-3-(2-(1-(trifluoromethyl)cyclopropyl)ethyl)urea], the IC50 in the assay with HT-29 cells was under 100 nM; at human wild type c-KIT it was under 150 nM; at human B-Raf V600E, under 150 nM; in the assay on HCT-116 cells, 100 to 1000 nM.
As to `Cc1cc(F)c(NC(=O)NCC(O)C(C)(C)C)cc1-c1cc2cnc(N)nc2nc1C` (stereo not shown) [Example 10], the IC50 in the assay on HT-29 cells was 100 to 1000 nM; against human wild type c-KIT, under 150 nM; at human B-Raf V600E it was under 150 nM; in the assay on HCT-116 cells it was 1000 to 10000 nM.
`CNc1ncc2cc(-c3cc(NC(=O)NC4CC(C)(C)C4)c(F)cc3F)c(C)nc2n1` [Example 7, 1-(2,4-Difluoro-5-(7-methyl-2-(methylamino)pyrido[2,3-d]pyrimidin-6-yl)phenyl)-3-(3,3-dimethylcyclobutyl)urea]: the IC50 was under 100 nM with HT-29 cells, under 150 nM on human wild type c-KIT, under 150 nM on human B-Raf V600E and 100 to 1000 nM in the assay with HCT-116 cells.
For `CCNc1ncc2cc(-c3cc(NC(=O)NCCC(C)(C)F)c(F)cc3C)c(C)nc2n1` [Example 26, 1-(5-(2-(Ethylamino)-7-methylpyrido[2,3-d]pyrimidin-6-yl)-2-fluoro-4-methylphenyl)-3-(3-fluoro-3-methylbutyl)urea], the IC50 in the assay on HT-29 cells was under 100 nM; on human wild type c-KIT, under 150 nM; at human B-Raf V600E it was under 150 nM; in the assay on HCT-116 cells it was 1000 to 10000 nM.
On to `CNc1ncc2cc(-c3cc(NC(=O)NCCC(C)(C)C#N)c(F)cc3F)c(C)nc2n1` [Example 12, 1-(3-Cyano-3-methylbutyl)-3-(2,4-difluoro-5-(7-methyl-2-(methylamino)pyrido[2,3-d]pyrimidin-6-yl)phenyl)urea], for which the IC50 in the assay on HT-29 cells is 100 to 1000 nM; on human wild type c-KIT it was under 150 nM; on human B-Raf V600E, under 150 nM; with HCT-116 cells it was 1000 to 10000 nM.
Take `CNc1ncc2cc(-c3cc(NC(=O)NCC(O)C(C)(C)C)c(F)cc3F)c(C)nc2n1` (stereo not shown) [Example 11, 1-[2,4-Difluoro-5-(7-methyl-2-methylamino-pyrido[2,3-d]pyrimidin-6-yl)phenyl]-3-(2-hydroxy-3,3-dimethyl-butyl)urea]: the IC50 with HT-29 cells was 100 to 1000 nM; at human wild type c-KIT, under 150 nM; at human B-Raf V600E, under 150 nM; in the assay on HCT-116 cells, 1000 to 10000 nM.
For the molecule `CNc1ncc2cc(-c3cc(NC(=O)NCCC4(C)CC4)c(F)cc3C)c(C)nc2n1` [Example 24, 1-(2-Fluoro-4-methyl-5-(7-methyl-2-(methylamino)pyrido[2,3-d]pyrimidin-6-yl)phenyl)-3-(2-(1-methylcyclopropyl)ethyl)urea], the IC50 in the assay on HT-29 cells was under 100 nM; against human wild type c-KIT, under 150 nM; at human B-Raf V600E, under 150 nM; in the assay with HCT-116 cells, 100 to 1000 nM.
For `Cc1cc(F)c(NC(=O)NCCC(C)(C)C)cc1-c1cc2cnc(NCc3cn(C)cn3)nc2nc1C` [Example 22, 1-(3,3-Dimethylbutyl)-3-(2-fluoro-4-methyl-5-(7-methyl-2-(((1-methyl-1H-imidazol-4-yl)methyl)amino)pyrido[2,3-d]pyrimidin-6-yl)phenyl)urea], the IC50 was under 100 nM in the assay with HT-29 cells, under 150 nM at human wild type c-KIT, under 150 nM on human B-Raf V600E and 100 to 1000 nM in the assay with HCT-116 cells.
On to `Cc1cc(F)c(NC(=O)NCCC(C)(C)C)cc1-c1cc2cnc(NCCN3CCOCC3)nc2nc1C` [Example 21, 1-(3,3-Dimethylbutyl)-3-(2-fluoro-4-methyl-5-(7-methyl-2-((2-morpholinoethyl)amino)pyrido[2,3-d]pyrimidin-6-yl)phenyl)ure], for which the IC50 in the assay on HT-29 cells was under 100 nM; at human wild type c-KIT, under 150 nM; at human B-Raf V600E, under 150 nM; with HCT-116 cells, 100 to 1000 nM.
